Results reported in paper doi:10.1101/2024.12.25.630315 (bioRxiv, 2024).
Numbered stars: 1 amine (or outer) side, 2 acyl side, 3 side chain; on linkers, the order of the positions; unused ones are H or OH. Bridge positions count the residues as written; N and C are the ends. Square brackets hold non-standard residues; d marks the D form. Primed or numbered codes have the meaning given here. * marks the point of attachment. TATA = O=C(CC[*:1])N1CN(C(=O)CC[*:2])CN(C(=O)CC[*:3])C1; NOTA = O=C(O)CN1CCN(CC(=O)O)CCN(CC(=O)*)CC1; Hyp = O=C(O)[C@@H]1C[C@@H](O)CN1; hArg = N=C(N)NCCCC[C@H](N)C(=O)O; PEG12′ = not defined here

Experiments:
Nectin-4 = conditions: cited from earlier work
Text: A PEG linker was attached to the N-terminal cysteine residue of AJ632 (Fig. 2A). The free terminal amine was then conjugated to a NOTA chelator, enabling the successful radiolabeling with gallium-68 to produce [^68Ga]AJ647 and its non-radioactive analog [^natGa]AJ647. The radiolabeling process, performed as previously described ([16]), yielded [^68Ga]AJ647 with an 71.2±9.4% decay-corrected yield and 97±0.8% purity (n=20), ach ...

human Nectin-4 = biological target: T1, human Nectin-4 (Homo sapiens, UniProt Q96NY8); experiment: Surface plasmon resonance, human Nectin-4; assay type: binding; conditions: SPR Biacore T200, CM5 chip, 25 °C, His-tagged human Nectin-4 captured, PBS-P+1% DMSO, 1:1 kinetics fit; mean±SD n=3
T1 construct: purchased R&D systems 2659-N4–050
T1 sequence (Q96NY8 32-349 limits assumed): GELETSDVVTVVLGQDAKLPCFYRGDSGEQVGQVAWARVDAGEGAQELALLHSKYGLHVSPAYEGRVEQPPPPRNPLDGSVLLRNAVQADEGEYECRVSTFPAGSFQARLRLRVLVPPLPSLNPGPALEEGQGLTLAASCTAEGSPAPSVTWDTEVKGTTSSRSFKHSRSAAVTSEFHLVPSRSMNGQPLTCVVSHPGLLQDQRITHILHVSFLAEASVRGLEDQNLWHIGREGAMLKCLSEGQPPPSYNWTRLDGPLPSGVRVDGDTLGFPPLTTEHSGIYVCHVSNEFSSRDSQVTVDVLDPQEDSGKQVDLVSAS
Procedure: (§1) The affinity of AJ647 for human and mouse Nectin-4 recombinant proteins were evaluated by SPR. The experiments were conducted using a Biacore T200 instrument with a CM5 chip at 25 °C. The ligands used were His-Tagged human Nectin-4 (R&D systems, catalog # 2659-N4–050, 44 kDa, 0.2 mg/ml stock concentration) and mouse Nectin-4 proteins (R&D systems, catalog # 3116-N4–050, 45 kDa, 0.2 mg/ml stock concentration), which were immobilized onto the CM5 chip. AJ647 (3057.5 Da, 10 mM stock concentration) was used as the analyte, which flowed over the ligand immobilized surface. FC2 and FC4 was used as the experimental flow cell, while FC1 and FC3 served as the reference. Anti-His antibody (1 mg/ml stock concentration) was immobilized on all FCs using standard amine coupling chemistry. […] Human Nectin-4 was captured onto FC2 at a level of ~600 RU, with a 1:20 dilution and 10 μg/ml diluted concentration in PBS-P. Mouse Nectin-4 was captured onto FC4 at a level of 600 RU, with a 1:20 dilution and 10 μg/ml diluted concentration in PBS-P. The theoretical Rmax values were calculated based on the captured response values and are presented in table below, assuming a 1:1 interaction mechanism. […] All association and dissociation kinetics were evaluated by 1:1 kinetics model fitting.

mouse Nectin-4 = biological target: T2, mouse Nectin-4 (Mus musculus, UniProt Q8R007); experiment: Surface plasmon resonance, mouse Nectin-4; assay type: binding; conditions: SPR Biacore T200, CM5 chip, 25 °C, His-tagged mouse Nectin-4 captured, PBS-P+1% DMSO, 1:1 kinetics fit; mean±SD n=3
T2 construct: purchased R&D systems 3116-N4–050
T2 sequence (Q8R007 31-347 limits assumed): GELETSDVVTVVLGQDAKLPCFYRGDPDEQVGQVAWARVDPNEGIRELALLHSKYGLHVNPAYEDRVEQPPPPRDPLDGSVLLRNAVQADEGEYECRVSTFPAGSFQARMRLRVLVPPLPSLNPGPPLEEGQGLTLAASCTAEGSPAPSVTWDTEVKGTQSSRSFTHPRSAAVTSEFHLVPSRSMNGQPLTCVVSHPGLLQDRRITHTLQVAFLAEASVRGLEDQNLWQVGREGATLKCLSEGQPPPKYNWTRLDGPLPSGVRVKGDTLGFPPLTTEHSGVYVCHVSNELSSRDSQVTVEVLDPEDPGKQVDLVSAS
Procedure: as §1

[1] = biological target: T3, mouse Nectin-4 (recombinant) (mouse, UniProt Q8R007 31-347); experiment: SPR
T3 chain: T2 sequence (Q8R007 31-347 limits assumed)

[2] = biological target: T4, His-Tagged human Nectin-4 (human, UniProt Q96NY8 32-349); experiment: SPR
T4 chain: T1 sequence (Q96NY8 32-349 limits assumed)

[3] = biological target: T5, Nectin-4 on urothelial carcinoma cells (human (endogenous in HT1376, UC14, UC9, …, UniProt Q96NY8 32-510)); experiment: flow cytometry on cells; competition: HT1376 cells with non-radioactive AJ647 5.4 uM to 0.01 nM for 30 min at 4 °C, washed, then EV-FITC for 30 min at 4 °C; mean fluorescence intensity as percent of 0 nM AJ647; conditions: one partner purified
T5 construct: Nectin-4, endogenous on the surface of urothelial carcinoma cell lines; also called cell surface Nectin-4; Nectin-4 receptor; source: endogenous, on HT1376, UC14, UC9, RT112 and SCaBER cells (and their xenografts)
T5 sequence (looked up): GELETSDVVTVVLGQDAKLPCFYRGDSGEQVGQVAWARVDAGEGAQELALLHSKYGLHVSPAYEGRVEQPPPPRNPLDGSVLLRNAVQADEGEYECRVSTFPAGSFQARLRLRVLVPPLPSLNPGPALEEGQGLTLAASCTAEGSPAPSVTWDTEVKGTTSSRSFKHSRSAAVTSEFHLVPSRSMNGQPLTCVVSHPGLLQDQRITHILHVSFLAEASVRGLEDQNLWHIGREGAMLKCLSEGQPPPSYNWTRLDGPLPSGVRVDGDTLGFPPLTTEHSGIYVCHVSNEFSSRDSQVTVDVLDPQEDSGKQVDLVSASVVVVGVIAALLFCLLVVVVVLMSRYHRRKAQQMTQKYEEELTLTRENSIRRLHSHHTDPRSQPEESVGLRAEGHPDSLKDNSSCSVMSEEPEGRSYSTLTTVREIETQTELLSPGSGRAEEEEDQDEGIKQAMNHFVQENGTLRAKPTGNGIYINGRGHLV

Molecule: NH2-PEG12-(Cys-Pro-Nal-Asp-Cys-Met-hArg-dAsp-Trp-Ser-Thr-Pro-Hyp-Trp-Cys)-TATA based cyclization (bicyclic or more) [AJ632]
- affinity to Nectin-4 (Nectin-4): low nanomolar

Molecule: CSCC[C@@H]1NC(=O)[C@@H]2CSCCC(=O)N3CN(CN(C3)C(=O)CCSC[C@H](NC(=O)CCOCCOCCOCCOCCOCCOCCOCCOCCOCCOCCOCCOCCNC(=O)CN3CCN(CC(=O)O)CCN(CC(=O)O)CC3)C(=O)N3CCC[C@H]3C(=O)N[C@@H](Cc3cccc4ccccc34)C(=O)N[C@@H](CC(=O)O)C(=O)N2)C(=O)CCSC[C@@H](C(N)=O)NC(=O)[C@H](Cc2c[nH]c3ccccc23)NC(=O)[C@@H]2C[C@@H](O)CN2C(=O)[C@@H]2CCCN2C(=O)[C@H]([C@@H](C)O)NC(=O)[C@H](CO)NC(=O)[C@H](Cc2c[nH]c3ccccc23)NC(=O)[C@@H](CC(=O)O)NC(=O)[C@H](CCCCNC(=N)N)NC1=O [[^natGa]AJ647, metal not drawn]
- Kd (human Nectin-4): 15 ± 10.1 nM
- Kd (mouse Nectin-4): 14.1 ± 3.4 nM

B1: [^natGa]AJ647 (peptide)
chain: {NOTA-PEG12′}-CP[Nal]DCM[hArg][dD]WSTP[Hyp]WC-NH2
modifications: linker 1-5-15 via TATA; also: natGa complexed in NOTA
- koff [1]: 0.0101 s⁻¹
- koff [2]: 0.0106 s⁻¹

B2: AJ647 (peptide)
chain: {NOTA-PEG12′}-CP[Nal]DCM[hArg][dD]WSTP[Hyp]WC-NH2
modifications: linker 1-5-15 via TATA
- IC50 [3]: 35 nM
